Data taken from ChEMBL document CHEMBL1201861, “Genomics of Drug Sensitity in Cancer screening data, Wellcome Trust Sanger Institute”.

How the values were obtained:
[1] = tested on: DMS-53; experiment: cells; format: functional, cell-based; details: Homo sapiens;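 note: cell viability assay measuring growth inhibition of human DMS-53 cells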
Description: SANGER: Inhibition of human DMS-53 cell growth in a cell viability assay.

[2] = tested on: DV-90; experiment: cells; format: functional, cell-based; details: Homo sapiens;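 note: Read-out is a viability assay, with IC50 reflecting the drop in DV-90 cell growth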
Description: SANGER: Inhibition of human DV-90 cell growth in a cell viability assay.

[3] = tested on: RERF-LC-MS; experiment: cells; format: functional, cell-based; details: Homo sapiens;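 note: growth inhibition of human RERF-LC-MS cells, read out by a cell viability assay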
Description: SANGER: Inhibition of human RERF-LC-MS cell growth in a cell viability assay.

[4] = tested on: HCC38; experiment: cells; format: functional, cell-based; details: Homo sapiens;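 note: cell viability assay on the human HCC38 cell line, with IC50 marking the concentration that inhibits cell growth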
Description: SANGER: Inhibition of human HCC38 cell growth in a cell viability assay.

[5] = tested on: 647-V; experiment: cells; format: functional, cell-based; details: Homo sapiens;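 note: growth inhibition of 647-V cells, read out with a cell viability assay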
Description: SANGER: Inhibition of human 647-V cell growth in a cell viability assay.

[6] = tested on: MKN-7; experiment: cells; format: functional, cell-based; details: Homo sapiens;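 note: growth inhibition of MKN-7 cells, read out with a cell viability assay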
Description: SANGER: Inhibition of human MKN7 cell growth in a cell viability assay.

[7] = tested on: AN3-CA; experiment: cells; format: functional, cell-based; details: Homo sapiens;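 note: growth inhibition of human AN3-CA cells measured by a cell viability assay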
Description: SANGER: Inhibition of human AN3-CA cell growth in a cell viability assay.

[8] = tested on: EFE-184; experiment: cells; format: functional, cell-based; details: Homo sapiens
Description: SANGER: Inhibition of human EFE-184 cell growth in a cell viability assay.

[9] = tested on: SNU-475; experiment: cells; format: functional, cell-based; details: Homo sapiens
Description: SANGER: Inhibition of human SNU-475 cell growth in a cell viability assay.

[10] = tested on: NCI-H2081; experiment: cells; format: functional, cell-based, Homo sapiens; details: Homo sapiens, NCI-H2081;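 note: growth inhibition of human NCI-H2081 cells, read out with a cell viability assay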
Description: SANGER: Inhibition of human NCI-H2081 cell growth in a cell viability assay.

[11] = tested on: BL-41; experiment: cells; format: functional, cell-based; details: Homo sapiens;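 note: growth inhibition of human BL-41 cells, read out with a cell viability assay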
Description: SANGER: Inhibition of human BL-41 cell growth in a cell viability assay.

[12] = tested on: VMRC-RCZ; experiment: cells; format: functional, cell-based; details: Homo sapiens
Description: SANGER: Inhibition of human VMRC-RCZ cell growth in a cell viability assay.

[13] = tested on: 8505C; experiment: cells; format: functional, cell-based; details: Homo sapiens
Description: SANGER: Inhibition of human 8505C cell growth in a cell viability assay.

[14] = tested on: BT-20; experiment: cells; format: functional, cell-based; details: Homo sapiens;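 note: cell viability assay measuring suppression of growth in human BT-20 cells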
Description: SANGER: Inhibition of human BT-20 cell growth in a cell viability assay.

[15] = tested on: NCI-H322M; experiment: cells; format: functional, cell-based, Homo sapiens; details: Homo sapiens, NCI-H322M;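 note: cell viability assay measuring inhibition of growth of human NCI-H322M cells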
Description: SANGER: Inhibition of human NCI-H322M cell growth in a cell viability assay.

[16] = tested on: BFTC-909; experiment: cells; format: functional, cell-based; details: Homo sapiens
Description: SANGER: Inhibition of human BFTC-909 cell growth in a cell viability assay.

[17] = tested on: EGI-1; experiment: cells; format: functional, cell-based; details: Homo sapiens;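 note: cell viability readout used to gauge growth inhibition of EGI-1 cells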
Description: SANGER: Inhibition of human EGI-1 cell growth in a cell viability assay.

[18] = tested on: MDA-MB-453; experiment: cells; format: functional, cell-based; details: Homo sapiens
Description: SANGER: Inhibition of human MDA-MB-453 cell growth in a cell viability assay.

[19] = tested on: LCLC-97TM1; experiment: cells; format: functional, cell-based; details: Homo sapiens;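 note: cell viability assay measuring growth inhibition of human LCLC-97TM1 cells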
Description: SANGER: Inhibition of human LCLC-97TM1 cell growth in a cell viability assay.

[20] = tested on: P12-Ichikawa; experiment: cells; format: functional, cell-based; details: Homo sapiens
[21] = tested on: IGROV-1; experiment: cells; format: functional, cell-based; details: Homo sapiens;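 note: reduction of IGROV-1 cell growth, read out with a viability assay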
Description: SANGER: Inhibition of human IGROV-1 cell growth in a cell viability assay.

[22] = tested on: NCI-H2141; experiment: cells; format: functional, cell-based, Homo sapiens; details: Homo sapiens, NCI-H2141;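 note: growth inhibition of human NCI-H2141 cells, read out with a cell viability assay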
Description: SANGER: Inhibition of human NCI-H2141 cell growth in a cell viability assay.

[23] = tested on: IPC-298; experiment: SANGER: Inhibition of human IPC-298 cell growth in a cell viability assay.; format: functional, cell-based
[24] = tested on: CAL-33; experiment: cells; format: functional, cell-based; details: Homo sapiens;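 note: growth inhibition of CAL-33 cells, read out with a cell viability assay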
Description: SANGER: Inhibition of human CAL-33 cell growth in a cell viability assay.

[25] = tested on: MCF7; experiment: cells; format: functional, cell-based; details: Homo sapiens;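 note: growth inhibition of human MCF7 cells, read out with a cell viability assay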
Description: SANGER: Inhibition of human MCF7 cell growth in a cell viability assay.

[26] = tested on: U-118-MG; experiment: cells; format: functional, cell-based; details: Homo sapiens
Description: SANGER: Inhibition of human U-118-MG cell growth in a cell viability assay.

[27] = tested on: CAKI-1; experiment: cells; format: functional, cell-based; details: Homo sapiens;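 note: growth inhibition of CAKI-1 cells, measured by a cell viability assay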
Description: SANGER: Inhibition of human CAKI-1 cell growth in a cell viability assay.

[28] = tested on: HCC1395; experiment: cells; format: functional, cell-based; details: Homo sapiens;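 note: growth inhibition of HCC1395 cells, read out by a cell viability assay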
Description: SANGER: Inhibition of human HCC1395 cell growth in a cell viability assay.

[29] = tested on: CAL-54; experiment: cells; format: functional, cell-based; details: Homo sapiens;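 note: growth inhibition of CAL-54 cells, read out by a viability measurement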
Description: SANGER: Inhibition of human CAL-54 cell growth in a cell viability assay.

[30] = tested on: CA46; experiment: cells; format: functional, cell-based, Homo sapiens; details: Homo sapiens, CA46;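 note: growth inhibition of human CA46 cells, read out by a cell viability assay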
Description: SANGER: Inhibition of human CA46 cell growth in a cell viability assay.

[31] = tested on: MDA-MB-175-VII; experiment: cells; format: functional, cell-based; details: Homo sapiens
[32] = tested on: NCI-H1563; experiment: cells; format: functional, cell-based; details: Homo sapiens;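 note: growth inhibition of human NCI-H1563 cells, read out with a cell viability assay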
Description: SANGER: Inhibition of human NCI-H1563 cell growth in a cell viability assay.

[33] = tested on: ME-180; experiment: cells; format: functional, cell-based; details: Homo sapiens;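 note: cell viability assay measuring growth inhibition of ME-180 cells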
Description: SANGER: Inhibition of human ME-180 cell growth in a cell viability assay.

[34] = tested on: YAPC; experiment: cells; format: functional, cell-based; details: Homo sapiens;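 note: growth inhibition of YAPC cells, measured with a cell viability assay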
Description: SANGER: Inhibition of human YAPC cell growth in a cell viability assay.

[35] = tested on: NCI-H1734; experiment: cells; format: functional, cell-based; details: Homo sapiens;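 note: growth inhibition of human NCI-H1734 cells, read out with a cell viability assay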
Description: SANGER: Inhibition of human NCI-H1734 cell growth in a cell viability assay.

[36] = tested on: SJRH30; experiment: cells; format: functional, cell-based; details: Homo sapiens;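 note: growth inhibition of human SJRH30 cells, read out with a cell viability assay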
Description: SANGER: Inhibition of human SJRH30 cell growth in a cell viability assay.

[37] = tested on: MEL-JUSO; experiment: cells; format: functional, cell-based; details: Homo sapiens;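 note: growth inhibition of human MEL-JUSO cells, read out with a cell viability assay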
Description: SANGER: Inhibition of human MEL-JUSO cell growth in a cell viability assay.

[38] = tested on: CMK; experiment: cells; format: functional, cell-based, Homo sapiens; details: Homo sapiens, CMK;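 note: growth inhibition of CMK cells, read out as cell viability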
Description: SANGER: Inhibition of human CMK cell growth in a cell viability assay.

[39] = tested on: SKG-IIIa; experiment: cells; format: functional, cell-based; details: Homo sapiens;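 note: cell growth inhibition, read out with a cell viability assay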
Description: SANGER: Inhibition of human SKG-IIIa cell growth in a cell viability assay.

[40] = tested on: CAL-148; experiment: cells; format: functional, cell-based, Homo sapiens; details: Homo sapiens, CAL-148
Description: SANGER: Inhibition of human CAL-148 cell growth in a cell viability assay.

[41] = tested on: OAW-42; experiment: cells; format: functional, cell-based; details: Homo sapiens;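 note: growth inhibition of OAW-42 cells, read out with a cell viability assay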
Description: SANGER: Inhibition of human OAW-42 cell growth in a cell viability assay.

[42] = tested on: A-427; experiment: cells; format: functional, cell-based; details: Homo sapiens;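 note: growth inhibition of human A-427 cells, read out by a cell viability assay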
Description: SANGER: Inhibition of human A427 cell growth in a cell viability assay.

[43] = tested on: DK-MG; experiment: cells; format: functional, cell-based; details: Homo sapiens;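 note: growth inhibition of DK-MG cells, read out with a cell viability assay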
Description: SANGER: Inhibition of human DK-MG cell growth in a cell viability assay.

[44] = tested on: CCF-STTG1; experiment: cells; format: functional, cell-based; details: Homo sapiens;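 note: growth inhibition of human CCF-STTG1 cells, determined with a cell viability read-out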
Description: SANGER: Inhibition of human CCF-STTG1 cell growth in a cell viability assay.

[45] = tested on: TT; experiment: cells; format: functional, cell-based; details: Homo sapiens
Description: SANGER: Inhibition of human TT cell growth in a cell viability assay.

[46] = tested on: EW-7; experiment: SANGER: Inhibition of human EW-7 cell growth in a cell viability assay.; format: functional, cell-based
[47] = tested on: HuP-T3; experiment: cells; format: functional, cell-based; details: Homo sapiens;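 note: HuP-T3 cell growth inhibition, read out with a cell viability assay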
Description: SANGER: Inhibition of human HuP-T3 cell growth in a cell viability assay.

[48] = tested on: MES-SA; experiment: cells; format: functional, cell-based; details: Homo sapiens;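 note: growth inhibition of human MES-SA cells, read out with a cell viability assay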
Description: SANGER: Inhibition of human MES-SA cell growth in a cell viability assay.

Structure (SMILES): C/C(=C\c1csc(C)n1)[C@@H]1C[C@@H]2O[C@]2(C)CCC[C@H](C)[C@H](O)[C@@H](C)C(=O)C(C)(C)[C@@H](O)CC(=O)O1 [PATUPILONE]
- IC50 [1]: > 32 nM
- IC50 [2]: 14.6 nM
- IC50 [3]: 24.5 nM
- IC50 [4]: 3.83 nM
- IC50 [5]: 2.42 nM
- IC50 [6]: > 32 nM
- IC50 [7]: 0.452 nM
- IC50 [8]: > 32 nM
- IC50 [9]: > 32 nM
- IC50 [10]: > 32 nM
- IC50 [11]: 1.35 nM
- IC50 [12]: 0.136 nM
- IC50 [13]: 0.451 nM
- IC50 [14]: 5.1 nM
- IC50 [15]: > 32 nM
- IC50 [16]: 1.56 nM
- IC50 [17]: > 32 nM
- IC50 [18]: > 32 nM
- IC50 [19]: 0.444 nM
- IC50 [20]: 11 nM
- IC50 [21]: 0.156 nM
- IC50 [22]: 13.7 nM
- IC50 [23]: 22.1 nM
- IC50 [24]: 1.52 nM
- IC50 [25]: 0.0866 nM
- IC50 [26]: 18 nM
- IC50 [27]: 17.3 nM
- IC50 [28]: > 32 nM
- IC50 [29]: > 32 nM
- IC50 [30]: 9.61 nM
- IC50 [31]: > 32 nM
- IC50 [32]: > 32 nM
- IC50 [33]: 5.74 nM
- IC50 [34]: > 32 nM
- IC50 [35]: 16 nM
- IC50 [36]: 12.9 nM
- IC50 [37]: 0.928 nM
- IC50 [38]: 1.33 nM
- IC50 [39]: > 32 nM
- IC50 [40]: 6.26 nM
- IC50 [41]: 2.18 nM
- IC50 [42]: 0.828 nM
- IC50 [43]: > 32 nM
- IC50 [44]: 5.83 nM
- IC50 [45]: > 32 nM
- IC50 [46]: 2.25 nM
- IC50 [47]: 3.81 nM
- IC50 [48]: 1.98 nM
